PubChem BioAssay AID1259411 (Chemical Carcinogenesis Research Information System (CCRIS), 2018)
The source made the active and inactive calls. No rule for the calls is given here.

Tested on: rodent carcinogenicity bioassays, tumor incidence
Experiment: CCRIS carcinogenicity studies
Method in brief: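 NCI-built, expert-reviewed records of carcinogenicity and related test outcomes (mutagenicity, tumor promotion/inhibition) compiled from published and report sources, historical span 1985-2011, not updated.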

## O=S(=O)([O-])[O-].[Cd+2]
Species: HAMSTER, Strain/Sex: SYRIAN/FEMALE, Route: INHALATION, Dose: 0, 30 UG/M3 19 HR/D 5 D/WK FOR 65 WK FOR A TOTAL CADMIUM DOSE OF 0, 180 MG/M3 (STUDY DURATION: 77 WK), Dose: 0, 30 UG/M3 19 HR/D 5 D/WK FOR 65 WK FOR A TOTAL CADMIUM DOSE OF 0, 180 MG/M3 (STUDY DURATION: 77 WK)
  carcinogen call: inactive; negative
Species: HAMSTER, Strain/Sex: SYRIAN/MALE, Route: INHALATION, Dose: 0, 30 UG/M3 19 HR/D 5 D/WK FOR 65 WK FOR A TOTAL CADMIUM DOSE OF 0, 180 MG/M3 (STUDY DURATION: 113 WK), Dose: 0, 30 UG/M3 19 HR/D 5 D/WK FOR 65 WK FOR A TOTAL CADMIUM DOSE OF 0, 180 MG/M3 (STUDY DURATION: 113 WK)
  carcinogen call: inactive; negative
Species: RAT, Strain/Sex: ALBINO/MALE, Route: SUBCUTANEOUS, Dose: 0.5 MG IN WATER 1/WK FOR 10 WK, Tumor Site: Type of Lesion: INJECTION SITE: SARCOMA, TESTES: INTERSTITIAL CELL TUMOR
  carcinogen call: active; positive
Species: RAT, Strain/Sex: CB/MALE, Route: SUBCUTANEOUS, Dose: 0.5 MG, 1/WK FOR 10 WK, Tumor Site: Type of Lesion: INJECTION SITE: SARCOMA, TESTES: INTERSTITIAL CELL TUMOR
  carcinogen call: active; positive
Species: RAT, Strain/Sex: WISTAR/FEMALE, Route: INHALATION, Dose: 0, 90 UG/M3 22 HR/D 7 D WK FOR 18 MO (STUDY DURATION: 18 MO), Tumor Site: Type of Lesion: LUNG: ALVEOLAR/BRONCHIOLAR ADENOMA, ALVEOLAR/BRONCHIOLAR ADENOCARCINOMA, SQUAMOUS CELL CARCINOMA
  carcinogen call: active; positive
Species: RAT, Strain/Sex: WISTAR/FEMALE, Route: INHALATION, Dose: 0, 90 UG/M3 22 HR/D 7 D/WK FOR 18 MO (STUDY DURATION: 29 MO), Tumor Site: Type of Lesion: LUNG: ALVEOLAR/BRONCHIOLAR ADENOMA, ADENOCARCINOMA, SQUAMOUS CELL CARCINOMA
  carcinogen call: active; positive
Species: RAT, Strain/Sex: WISTAR/FEMALE, Route: INHALATION, Dose: 0, 90 UG/M3 22 HR/D 7 D/WK FOR 18 MO (STUDY DURATION: 29 MO), Tumor Site: Type of Lesion: LUNG: TUMOR
  carcinogen call: active; positive
Species: RAT, Strain/Sex: WISTAR/FEMALE, Route: INHALATION, Dose: 0, 90 UG/M3 AEROSOL 22 HR/D 7 D/WK FOR 18 MO (STUDY DURATION: 29 MO), Tumor Site: Type of Lesion: LUNG: ALVEOLAR/BRONCHIOLAR ADENOMA, ADENOCARCINOMA, SQUAMOUS CELL CARCINOMA
  carcinogen call: active; positive
Species: RAT, Strain/Sex: WISTAR/MALE, Route: INHALATION, Dose: 0, 90 UG/M3 22 HR/D 7 D/WK FOR 14 MO (STUDY DURATION: 31 MO), Tumor Site: Type of Lesion: LUNG: ALVEOLAR/BRONCHIOLAR ADENOMA, ADENOCARCINOMA
  carcinogen call: active; positive
Species: RAT, Strain/Sex: WISTAR/MALE, Route: INHALATION, Dose: 0, 90 UG/M3 22 HR/D 7 D/WK FOR 14 MO (STUDY DURATION: 31 MO), Tumor Site: Type of Lesion: LUNG: TUMOR
  carcinogen call: active; positive
Species: RAT, Strain/Sex: WISTAR/MALE, Route: INHALATION, Dose: 0, 90 UG/M3 22 HR/D 7 D/WK FOR 135 MO (STUDY DURATION: 13.5 MO), Tumor Site: Type of Lesion: LUNG: ALVEOLAR/BRONCHIOLAR ADENOMA, ALVEOLAR/BRONCHIOLAR ADENOCARCINOMA, SQUAMOUS CELL CARCINOMA
  carcinogen call: active; positive
Species: RAT, Strain/Sex: WISTAR/MALE, Route: INHALATION, Dose: 0, 90 UG/M3 AEROSOL 22 HR/D 7 D/WK FOR 14 MO (STUDY DURATION: 31 MO), Tumor Site: Type of Lesion: LUNG: ALVEOLAR/BRONCHIOLAR ADENOMA, ADENOCARCINOMA
  carcinogen call: active; positive

## c1ccc2c(c1)ccc1cc3c4c(ccc3cc12)CCCC4
Species: MOUSE, Strain/Sex: SWISS/FEMALE, Route: DERMAL, Dose: 0, 32 UG AS 0.2% SOLUTION IN ACETONE APPLIED TO INTERSCAPULAR REGION 2/WK FOR 50 WK (STUDY DURATION: 60 WK), Tumor Site: Type of Lesion: SKIN: CARCINOMA
  carcinogen call: active; positive

## CC(COc1ccc(C(C)(C)C)cc1)OS(=O)OCCCl (stereo unspecified)
Species: DOG, Strain/Sex: MONGREL/MALE,FEMALE, Route: ORAL, Dose: 0, 500, 828-1420 PPM IN DIET FOR 3.5 YR, Dose: 0, 500, 828-1420 PPM IN DIET FOR 3.5 YR, Tumor Site: Type of Lesion: BILE DUCT: ADENOCARCINOMA, GALL BLADDER: ADENOCARCINOMA
  carcinogen call: active; positive
Species: MOUSE, Strain/Sex: B6C3F1/MALE,FEMALE, Route: GAVAGE/ORAL, Dose: 464 MG/KG FROM D 7-28 OF LIFE THEN 1112 PPM IN DIET, Tumor Site: Type of Lesion: LIVER: HEPATOMA
  carcinogen call: active; positive
Species: RAT, Strain/Sex: WISTAR/MALE,FEMALE, Route: ORAL, Dose: 500, 1580, 5000 PPM IN DIET FOR 2 YR, Dose: 500, 1580, 5000 PPM IN DIET FOR 2 YR, Tumor Site: Type of Lesion: LIVER: HEPATOMA, CHOLANGIOMA
  carcinogen call: active; positive

## CCC1(c2ccccc2)C(=O)N=C(O)NC1=O (stereo unspecified)
Species: MOUSE, Route: ORAL, Tumor Site: Type of Lesion: LIVER
  carcinogen call: active; positive
Species: MOUSE, Strain/Sex: C3H/HE/MALE, Route: ORAL, Dose: 0, 85 MG/KG/D IN DIET FOR DURATION OF STUDY (STUDY DURATION: 91 WK)
  carcinogen call: inactive; negative
Species: MOUSE, Strain/Sex: C57BL/MALE, Route: ORAL, Dose: 0, 85 MG/KG/D IN DIET FOR DURATION OF STUDY (STUDY DURATION: 100 WK)
  carcinogen call: inactive; negative
Species: RAT, Route: ORAL, Tumor Site: Type of Lesion: LIVER
  carcinogen call: active; positive
Species: RAT, Strain/Sex: F344/MALE, Route: ORAL, Dose: 0, 8, 30, 125, 500 PPM IN DIET FOR 104 WK (STUDY DURATION: 104 WK), Dose: 0, 8, 30, 125, 500 PPM IN DIET FOR 104 WK (STUDY DURATION: 104 WK)
  carcinogen call: inactive; negative

## CC(C)(C)c1cc([N+](=O)[O-])cc([N+](=O)[O-])c1OS(C)(=O)=O
Species: RAT, Strain/Sex: SPRAGUE-DAWLEY/FEMALE, Route: ORAL, Dose: 0, 25, 100, 400 PPM IN DIET FOR 1 YR (STUDY DURATION: 1 YR), Dose: 0, 25, 100, 400 PPM IN DIET FOR 1 YR (STUDY DURATION: 1 YR)
  carcinogen call: inactive; negative
Species: RAT, Strain/Sex: SPRAGUE-DAWLEY/MALE, Route: ORAL, Dose: 0, 25, 100, 400 PPM IN DIET FOR 1 YR (STUDY DURATION: 1 YR), Dose: 0, 25, 100, 400 PPM IN DIET FOR 1 YR (STUDY DURATION: 1 YR)
  carcinogen call: inactive; negative

## O=[N+]([O-])c1ccc2ccc3c([N+](=O)[O-])ccc4ccc1c2c43
Species: HAMSTER, Strain/Sex: SYRIAN/FEMALE, Route: INTRATRACHEAL, Dose: 0, 0.5 MG IN 0.2 ML OF SALINE 1/WK FOR 26 WK (STUDY DURATION: 48 WK), Tumor Site: Type of Lesion: LUNG: ADENOCARCINOMA, HEMATOPOIETIC SYSTEM: LEUKEMIA
  carcinogen call: active; positive
Species: HAMSTER, Strain/Sex: SYRIAN/MALE, Route: INTRAPERITONEAL, Dose: 0, 0.5 MG IN 0.2 ML OF SALINE 1/WK FOR 26 WK (STUDY DURATION: 48 WK), Tumor Site: Type of Lesion: LUNG: ADENOCARCINOMA, HEMATOPOIETIC SYSTEM: LEUKEMIA
  carcinogen call: active; positive
Species: MOUSE, Strain/Sex: BALB/MALE, Route: SUBCUTANEOUS, Dose: 0, 0.1 MG IN DMSO 1/WK FOR 20 WK (STUDY DURATION: 60 WK), Tumor Site: Type of Lesion: INJECTION SITE: TUMOR
  carcinogen call: active; positive
Species: RAT, Strain/Sex: F344/MALE, Route: SUBCUTANEOUS, Dose: 0, 0.2 MG 2/WK FOR 10 WK (STUDY DURATION: 320 D), Tumor Site: Type of Lesion: INJECTION SITE: SARCOMA
  carcinogen call: active; positive
Species: RAT, Strain/Sex: F344/NS1C/MALE, Route: PULMONARY IMPLANT, Dose: 0, 0.003, 0.01, 0.03, 0.1, 0.15 MG AS A SUSPENSION IN EQUAL VOL OF BEESWAX AND TRICAPRYLIN IMPLANTED IN LEFT LUNG (STUDY, Dose: 0, 0.003, 0.01, 0.03, 0.1, 0.15 MG AS A SUSPENSION IN EQUAL VOL OF BEESWAX AND TRICAPRYLIN IMPLANTED IN LEFT LUNG (STUDY, Tumor Site: Type of Lesion: LUNG: TUMOR
  carcinogen call: active; positive
Species: RAT, Strain/Sex: STRAIN CD/FEMALE, Route: INTRAGASTRIC, Dose: 0, 10 UMOL IN DMSO 3/WK FOR 4 WK (TOTAL DOSE: 16 UMOL/RAT) (STUDY DURATION: 78 WK), Tumor Site: Type of Lesion: PITUITARY GLAND: CARCINOMA
  carcinogen call: active; positive
Species: RAT, Strain/Sex: STRAIN CD/FEMALE, Route: INTRAPERITONEAL, Dose: 0, 10 UMOL IN DMSO 3/WK FOR 4 WK (TOTAL DOSE; 16 UMOL/RAT) (STUDY DURATION; 78 WK), Dose: 0, 10 UMOL IN DMSO 3/WK FOR 4 WK (TOTAL DOSE; 16 UMOL/RAT) (STUDY DURATION; 78 WK), Tumor Site: Type of Lesion: HEMATOPOIETIC SYSTEM: HISTIOCYTOMA
  carcinogen call: active; positive
Species: RAT, Strain/Sex: STRAIN-CD/FEMALE, Route: SUBCUTANEOUS, Dose: 0, 6.3 UMOL (TOTAL DOSE) ADMINISTERED OVER 8 WK BEGINNING ON DAY OF BIRTH (STUDY DURATION: 67 WK), Tumor Site: Type of Lesion: INTEGUMENTARY SYSTEM: MALIGNANT FIBROUS HISTIOCYTOMA, HEMATOPOIETIC SYSTEM: LEUKEMIA
  carcinogen call: active; positive
